According to patent US20060069132A1, “Azolecarboxamide herbicides” (priority 2004, published 2006):

Key:
[1] = system: small flower umbrella sedge; test: Test B flooded paddy test; assay type: in vivo, Cyperus difformis; details: 1000 g ai/ha, scale 0 to 100 (0 no effect, 100 complete control)
Outline: (§1)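 Treated at 2-leaf (paddy) or 1–4-leaf, 2–18 cm (postemergence); greenhouse 13–15 d; visual score vs control, 0 none to 100 complete control; dash = not tested.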

barnyardgrass [2] = test: Test B flooded paddy test; assay type: in vivo, Echinochloa crus-galli; details: 1000 g ai/ha, scale 0 to 100 (0 no effect, 100 complete control)
Outline: as §1

velvetleaf = test: Test B pre-/postemergence herbicide test; assay type: in vivo, Abutilon theophrasti; details: for Plant response rating (0 to 100 scale), Velvetleaf: 0 is no effect, 100 is complete control, preemergence; for Velvetleaf plant response rating: scale 0 (no effect) to 100 (complete control)
Outline: (§2)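 Test chemicals in a non-phytotoxic solvent mixture with surfactant were applied preemergence to seeded species and postemergence to plants 2-18 cm tall (1- to 4-leaf stage); rice and barnyardgrass were also tested in a flooded paddy at the 2-leaf stage. Visual rating versus controls after 13-15 days in greenhouse, scale 0 (no effect) to 100 (complete control).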

blackgrass = test: Test B postemergence herbicide test; assay type: in vivo, Alopecurus myosuroides
Outline: as §1

lambsquarters = test: Test B pre-/postemergence herbicide test; assay type: in vivo, Chenopodium album; details: for Plant response rating (0 to 100 scale), Lambsquarters: 0 is no effect, 100 is complete control, preemergence; for Lambsquarters plant response rating: scale 0 (no effect) to 100 (complete control)
Outline: as §2

wheat = test: Test B postemergence herbicide test; assay type: in vivo, Triticum aestivum; parameters: key to Wheat plant response rating: 0 = no effect, 100 = complete control
Outline: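 Visual ratings, 0 (no effect) to 100 (complete control), made versus controls after 13–15 d greenhouse. Paddy plants treated at 2-leaf stage; postemergence plants at 1- to 4-leaf stage, 2–18 cm tall.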

morningglory = test: Test B pre-/postemergence herbicide test; assay type: in vivo, Ipomoea coccinea; details: for Plant response rating (0 to 100 scale), Morningglory: 0 is no effect, 100 is complete control, preemergence; for Morningglory plant response rating: scale 0 (no effect) to 100 (complete control)
Outline: (§3)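 Herbicidal effect was judged by eye on a 0–100 scale after plants stood 13 to 15 days in the greenhouse following pre- or postemergence treatment with surfactant-containing formulations.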

cocklebur = test: Test B pre-/postemergence herbicide test; assay type: in vivo, Xanthium strumarium; details: for Plant response rating (0 to 100 scale), Cocklebur: 0 is no effect, preemergence
Outline: as §3

ducksalad = test: Test B flooded paddy test; assay type: in vivo, Heteranthera limosa; details: 1000 g ai/ha, scale 0 to 100 (0 no effect, 100 complete control)
Outline: as §1

large crabgrass = test: Test B pre-/postemergence herbicide test; assay type: in vivo, Digitaria sanguinalis; details: for Plant response rating (0 to 100 scale), Crabgrass, Large: 0 is no effect, preemergence
Outline: as §2

Surinam grass = test: Test B pre-/postemergence herbicide test; assay type: in vivo, Urochloa decumbens; details: for Plant response rating (0 to 100 scale), Surinam Grass: 0 is no effect, 100 is complete control, preemergence; for Surinam Grass plant response rating: scale 0 (no effect) to 100 (complete control)
Outline: as §2

barnyardgrass [3] = test: Test B pre-/postemergence herbicide test; assay type: in vivo, Echinochloa crus-galli; details: for Plant response rating (0 to 100 scale), Barnyardgrass: 0 is no effect, preemergence
Outline: as §3

giant foxtail = test: Test B pre-/postemergence herbicide test; assay type: in vivo, Setaria faberi; details: for Plant response rating (0 to 100 scale), Foxtail, Giant: 0 is no effect, preemergence
Outline: as §2

corn = test: Test B pre-/postemergence herbicide test; assay type: in vivo, Zea mays; details: for Plant response rating (0 to 100 scale), Corn: 0 is no effect, preemergence
Outline: as §2

rice = test: Test B flooded paddy test; assay type: in vivo, Oryza sativa; details: 1000 g ai/ha, scale 0 to 100 (0 no effect, 100 complete control)
Outline: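 Paddy species grown to the 2-leaf stage under flooding; blackgrass sprayed postemergence at 2–18 cm (1- to 4-leaf stage). Plants kept in a greenhouse for 13 to 15 days, then visually rated against controls on 0 (no effect) to 100 (complete control).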

[4] = 125 g ai/ha, visual rating, postemergence
[5] = 125 g ai/ha, visual rating, scale 0 (no effect) to 100 (complete control), postemergence
[6] = postemergence, 500 g ai/ha, scale 0 to 100, 0 is no effect, 100 is complete control
[7] = 500 g ai/ha, scale 0 to 100, 0 no effect, 100 complete control, preemergence
[8] = Postemergence, 500 g ai/ha, scale 0 (no effect) to 100 (complete control)
[9] = 125 g ai/ha, 100 is complete control

| SMILES | Sedge, Umbrella plant response rating [1] | Barnyardgrass plant response rating (barnyardgrass [2]) | Plant response rating (0 to 100 scale), Velvetleaf (velvetleaf; 125 g ai/ha) | Velvetleaf plant response rating (velvetleaf; [4]) | Velvetleaf plant response rating (velvetleaf; Postemergence, 500 g ai/ha) | Blackgrass plant response rating (blackgrass; [5]) | Plant response rating (0 to 100 scale), Lambsquarters (lambsquarters; 125 g ai/ha) | Lambsquarters plant response rating (lambsquarters; [4]) | Lambsquarters plant response rating (lambsquarters; Postemergence, 500 g ai/ha) | Wheat plant response rating (wheat; [5]) | Wheat plant response rating (wheat; [7]) | Wheat plant response rating (wheat; [8]) | Plant response rating (0 to 100 scale), Morningglory (morningglory; 125 g ai/ha) | Morningglory plant response rating (morningglory; [4]) | Morningglory plant response rating (morningglory; Postemergence, 500 g ai/ha) | Plant response rating (0 to 100 scale), Cocklebur (cocklebur; [9]) | Cocklebur plant response rating (cocklebur; [5]) | Ducksalad plant response rating (ducksalad) | Plant response rating (0 to 100 scale), Crabgrass, Large (large crabgrass; [9]) | Crabgrass, Large plant response rating (large crabgrass; [5]) | also measured |
| --- | --- | --- | --- | --- | --- | --- | --- | --- | --- | --- | --- | --- | --- | --- | --- | --- | --- | --- | --- | --- | --- |
| CCc1nn(C(C)(C)CC)nc1C(=O)Nc1cccc(C(=O)N(C)C)c1 [Compound 372] | 90 | 90 | 10 | 10 | 30 | 10 | 100 | 40 | 90 | 0 | 90 | 10 | 10 | 20 | 60 | 10 | 20 | 90 | 80 | 10 | Blackgrass plant response rating (blackgrass; [6]): 30; Cocklebur plant response rating (cocklebur; [6]): 30; Crabgrass, Large plant response rating (large crabgrass; [6]): 20; Plant response rating (0 to 100 scale), Surinam Grass (Surinam grass; 125 g ai/ha): 50; Surinam Grass plant response rating (Surinam grass; [4]): 10; Surinam Grass plant response rating (Surinam grass; Postemergence, 500 g ai/ha): 10; Plant response rating (0 to 100 scale), Barnyardgrass (barnyardgrass [3]; [9]): 80; Barnyardgrass plant response rating (barnyardgrass [3]; [5]): 10; Barnyardgrass plant response rating (barnyardgrass [3]; [6]): 60; Plant response rating (0 to 100 scale), Foxtail, Giant (giant foxtail; [9]): 60; Foxtail, Giant plant response rating (giant foxtail; [5]): 30; Foxtail, Giant plant response rating (giant foxtail; [6]): 50; Plant response rating (0 to 100 scale), Corn (corn; [9]): 60; Corn plant response rating (corn; [5]): 20; Corn plant response rating (corn; [6]): 60; Rice plant response rating (rice): 90 |
| CCNC(=O)c1cccc(NC(=O)c2nn(C(C)(C)CC)nc2CC)c1 [Compound 376] | 80 | 70 | 10 | 20 | 40 | 10 | 100 | 70 | 90 | 10 | 90 | 20 | 10 | 30 | 60 | 0 | 20 | 90 | 80 | 10 | Blackgrass plant response rating (blackgrass; [6]): 40; Cocklebur plant response rating (cocklebur; [6]): 30; Crabgrass, Large plant response rating (large crabgrass; [6]): 50; Plant response rating (0 to 100 scale), Surinam Grass (Surinam grass; 125 g ai/ha): 40; Surinam Grass plant response rating (Surinam grass; [4]): 10; Surinam Grass plant response rating (Surinam grass; Postemergence, 500 g ai/ha): 20; Plant response rating (0 to 100 scale), Barnyardgrass (barnyardgrass [3]; [9]): 80; Barnyardgrass plant response rating (barnyardgrass [3]; [5]): 10; Barnyardgrass plant response rating (barnyardgrass [3]; [6]): 40; Plant response rating (0 to 100 scale), Foxtail, Giant (giant foxtail; [9]): 70; Foxtail, Giant plant response rating (giant foxtail; [5]): 30; Foxtail, Giant plant response rating (giant foxtail; [6]): 60; Plant response rating (0 to 100 scale), Corn (corn; [9]): 40; Corn plant response rating (corn; [5]): 10; Corn plant response rating (corn; [6]): 30; Rice plant response rating (rice): 60 |
| C#CCNC(=O)c1cccc(NC(=O)c2nn(C(C)(C)C)nc2CC)c1 [Compound 380] | 70 | 70 | 10 | 10 | 30 | 20 | 90 | 60 | 70 | 10 | 100 | 10 | 10 | 20 | 60 | 0 | 20 | 80 | 90 | 0 | Blackgrass plant response rating (blackgrass; [6]): 40; Cocklebur plant response rating (cocklebur; [6]): 30; Crabgrass, Large plant response rating (large crabgrass; [6]): 10; Plant response rating (0 to 100 scale), Surinam Grass (Surinam grass; 125 g ai/ha): 40; Surinam Grass plant response rating (Surinam grass; [4]): 10; Surinam Grass plant response rating (Surinam grass; Postemergence, 500 g ai/ha): 30; Plant response rating (0 to 100 scale), Barnyardgrass (barnyardgrass [3]; [9]): 70; Barnyardgrass plant response rating (barnyardgrass [3]; [5]): 0; Barnyardgrass plant response rating (barnyardgrass [3]; [6]): 0; Plant response rating (0 to 100 scale), Foxtail, Giant (giant foxtail; [9]): 70; Foxtail, Giant plant response rating (giant foxtail; [5]): 0; Foxtail, Giant plant response rating (giant foxtail; [6]): 20; Plant response rating (0 to 100 scale), Corn (corn; [9]): 0; Corn plant response rating (corn; [5]): 0; Corn plant response rating (corn; [6]): 20; Rice plant response rating (rice): 70 |
| Cc1nn(C(C)(C)C)nc1C(=O)Nc1cccc(C(=O)N(C)C)c1 [Compound 391] | 80 | 90 | 80 | 40 | 60 | 30 | 100 | 70 | 90 | 0 | 100 | 10 | 90 | 30 | 70 | 70 | 30 | 90 | 100 | 10 | Blackgrass plant response rating (blackgrass; [8]): 70; Cocklebur plant response rating (cocklebur; [8]): 30; Crabgrass, Large plant response rating (large crabgrass; [8]): 30; Plant response rating (0 to 100 scale), Surinam Grass (Surinam grass; 125 g ai/ha): 100; Surinam Grass plant response rating (Surinam grass; [4]): 10; Surinam Grass plant response rating (Surinam grass; Postemergence, 500 g ai/ha): 30; Plant response rating (0 to 100 scale), Barnyardgrass (barnyardgrass [3]; [9]): 100; Barnyardgrass plant response rating (barnyardgrass [3]; [5]): 10; Barnyardgrass plant response rating (barnyardgrass [3]; [8]): 30; Plant response rating (0 to 100 scale), Foxtail, Giant (giant foxtail; [9]): 90; Foxtail, Giant plant response rating (giant foxtail; [5]): 20; Foxtail, Giant plant response rating (giant foxtail; [8]): 30; Plant response rating (0 to 100 scale), Corn (corn; [9]): 90; Corn plant response rating (corn; [5]): 10; Corn plant response rating (corn; [8]): 30; Rice plant response rating (rice): 90 |
| CCNC(=O)c1ccc(F)c(N(C(C)=O)C(=O)c2cc(C(C)(C)C)nn2CC)c1 [Compound 399] | 80 | 90 | 80 | 20 | 80 | 30 | 100 | 80 | 100 | 10 | 100 | 30 | 10 | 20 | 40 | 50 | 60 | 90 | 100 | 20 | Blackgrass plant response rating (blackgrass; [8]): 70; Cocklebur plant response rating (cocklebur; [8]): 80; Crabgrass, Large plant response rating (large crabgrass; [8]): 30; Plant response rating (0 to 100 scale), Surinam Grass (Surinam grass; 125 g ai/ha): 90; Surinam Grass plant response rating (Surinam grass; [4]): 20; Surinam Grass plant response rating (Surinam grass; Postemergence, 500 g ai/ha): 40; Plant response rating (0 to 100 scale), Barnyardgrass (barnyardgrass [3]; [9]): 90; Barnyardgrass plant response rating (barnyardgrass [3]; [5]): 10; Barnyardgrass plant response rating (barnyardgrass [3]; [8]): 40; Plant response rating (0 to 100 scale), Foxtail, Giant (giant foxtail; [9]): 100; Foxtail, Giant plant response rating (giant foxtail; [5]): 30; Foxtail, Giant plant response rating (giant foxtail; [8]): 50; Plant response rating (0 to 100 scale), Corn (corn; [9]): 90; Corn plant response rating (corn; [5]): 10; Corn plant response rating (corn; [8]): 40; Rice plant response rating (rice): 80 |
